Laboratory results taken from paper PMC11314561, “Design and Synthesis of Novel Aminoindazole-pyrrolo[2,3-b]pyridine Inhibitors of IKKα That Selectively Perturb Cellular Non-Canonical NF-κB Signalling” (Molecules, 2024).
In brackets after ≈: the same amount, converted by molar mass. Like-named read-outs stand apart in the source and are kept apart here.

Tests used:
IKKα = biological target: T1, IKKα (Homo sapiens, UniProt O15111); assay: DELFIA kinase assay, IKKα; format: biochemical; conditions: DELFIA kinase assay
T1 sequence (O15111 1-745): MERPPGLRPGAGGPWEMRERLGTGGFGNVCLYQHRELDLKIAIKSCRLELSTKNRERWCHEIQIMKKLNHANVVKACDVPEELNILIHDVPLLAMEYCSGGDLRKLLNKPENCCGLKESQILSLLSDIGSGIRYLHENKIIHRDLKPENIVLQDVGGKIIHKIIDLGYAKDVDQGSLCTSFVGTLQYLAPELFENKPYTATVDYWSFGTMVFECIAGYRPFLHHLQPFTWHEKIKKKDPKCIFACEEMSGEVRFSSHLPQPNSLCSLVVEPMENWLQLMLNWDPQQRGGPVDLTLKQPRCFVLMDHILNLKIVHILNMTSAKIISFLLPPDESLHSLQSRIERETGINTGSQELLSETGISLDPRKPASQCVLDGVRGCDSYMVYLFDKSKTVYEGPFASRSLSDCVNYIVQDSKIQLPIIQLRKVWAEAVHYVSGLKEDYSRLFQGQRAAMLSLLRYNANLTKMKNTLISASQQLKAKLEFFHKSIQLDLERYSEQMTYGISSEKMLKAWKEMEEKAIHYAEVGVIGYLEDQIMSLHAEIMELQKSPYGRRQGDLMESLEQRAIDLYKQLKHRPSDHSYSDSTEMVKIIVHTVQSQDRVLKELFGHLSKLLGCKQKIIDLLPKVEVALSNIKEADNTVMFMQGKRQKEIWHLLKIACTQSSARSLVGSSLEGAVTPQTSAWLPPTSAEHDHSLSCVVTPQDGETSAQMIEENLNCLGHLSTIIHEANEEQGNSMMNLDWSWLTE
Text: To examine the pyrrolo[2,3-b]pyridines as an alternative scaffold, we adopted the AIPP core because it had similar dimensions to SU909 (1), with HBD/HBA motifs positioned at the scaffold extremities to interact with both the hinge region and the G-loop wall of IKKα, a rationale we had previously proposed as the basis for imparting selectivity. A preliminary set of AIPP derivatives was designed and synthesised to explore its utility as an IKK-targeting scaffold, whilst incorporating additional functionality through which to introduce selectivity for the IKKα isoform (2–4; Figure 3). This was achieved by initially adopting two different approaches: either appending a hydrophobic moiety to the pyrrolo[2,3-b]pyridine motif as a fused form to afford the tricyclic derivatives 2 and 3, or as a phenyl substituent to introduce flexibility with respect to the central pyrrolo[2,3-b]pyridine moiety in 4. When assessed against IKKα and IKKβ using our in-house DELFIA kinase assay […] The pyrrolo[2,3-b]pyridine was bound to the hinge region in the classical HBA/HBD motif with the GK+3 amide backbone, whilst the aminoindazole projected towards the top of the pocket to interact with the G-loop (Figure 4A). […] In both isoforms, the 2-phenyl moiety protruded away from the hinge towards the exposed solvent area.
(§1) IKKα and IKKβ inhibitory activity were determined using a dissociation-enhanced ligand fluorescent immunoassay (DELFIA) based on the protocol of HTScan™ IKKβ Kinase Assay (Cell Signaling Technology, Danvers, MA, USA) as described in [24].

IKKβ = biological target: T2, IKKβ (Homo sapiens, UniProt O14920); assay: DELFIA kinase assay, IKKβ; format: biochemical
T2 sequence (O14920 1-756): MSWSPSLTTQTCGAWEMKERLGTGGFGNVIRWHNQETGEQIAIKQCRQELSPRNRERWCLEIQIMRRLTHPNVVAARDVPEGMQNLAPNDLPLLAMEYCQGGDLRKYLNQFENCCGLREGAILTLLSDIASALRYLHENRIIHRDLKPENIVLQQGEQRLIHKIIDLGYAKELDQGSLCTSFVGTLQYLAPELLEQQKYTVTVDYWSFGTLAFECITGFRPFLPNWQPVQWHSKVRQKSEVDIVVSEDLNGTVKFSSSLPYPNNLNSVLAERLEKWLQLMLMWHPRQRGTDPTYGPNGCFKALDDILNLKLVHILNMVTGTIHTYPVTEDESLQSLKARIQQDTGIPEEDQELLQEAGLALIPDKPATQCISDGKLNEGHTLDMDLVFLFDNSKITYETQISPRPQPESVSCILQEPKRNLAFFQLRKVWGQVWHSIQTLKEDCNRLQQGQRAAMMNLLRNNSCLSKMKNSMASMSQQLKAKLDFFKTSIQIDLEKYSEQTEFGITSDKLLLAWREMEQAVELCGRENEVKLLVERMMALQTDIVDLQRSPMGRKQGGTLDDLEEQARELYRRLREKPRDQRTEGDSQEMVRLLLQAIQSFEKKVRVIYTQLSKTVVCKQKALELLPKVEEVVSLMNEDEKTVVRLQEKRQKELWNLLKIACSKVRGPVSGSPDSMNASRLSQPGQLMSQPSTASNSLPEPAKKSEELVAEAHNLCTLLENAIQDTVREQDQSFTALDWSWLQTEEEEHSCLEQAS
Description: as §1

Turbidimetric solubility = format: physicochemical; conditions: pH 7.4, aqueous buffer, kinetic from dmso stock, 0.01 M phosphate-buffered saline pH7.4
Description: Pharmacokinetic studies were contracted to Sygnature Discovery Limited. Turbidimetric Solubility was determined by diluting compound solutions (1 μM, 3 μM, 10 μM, 30 μM, 100 μM) prepared in DMSO into 0.01 M phosphate-buffered saline pH7.4. Turbidimetry was used as the endpoint by measuring absorbance at 620 nm.

Row | Structure (SMILES) | Ki (IKKα) [nM] | Ki (IKKβ; read-out: Ki Values IKKβ) [nM] | solubility (Turbidimetric solubility) [µM] | Ki (IKKβ; Ki Values IKKβ) [nM]
1 | Nc1n[nH]c2ccc(-c3ccnc4[nH]c5c(c34)CCCC5)cc12 [Compound 2, 5-(6,7,8,9-Tetrahydro-5H-pyrido[2,3-b]indol-4-yl)-1H-indazol-3-amine] | 2 | 77 | – | –
2 | Nc1n[nH]c2ccc(-c3ccnc4[nH]c5ccccc5c34)cc12 [Compound 3] | 3 | 5 | – | –
3 | Nc1n[nH]c2ccc(-c3ccnc4[nH]c(-c5ccccc5O)cc34)cc12 [Compound 5a] | 4 | 42 | – | –
4 | Nc1n[nH]c2ccc(-c3ccnc4[nH]c(-c5cccc(S(=O)(=O)N6CCOCC6)c5)cc34)cc12 [Compound 5aa] | 25 | 149 | – | –
5 | CCOc1ccccc1-c1cc2c(-c3ccc4[nH]nc(N)c4c3)ccnc2[nH]1 [Compound 5b] | 8 | 86 | – | –
6 | Nc1cccc(-c2cc3c(-c4ccc5[nH]nc(N)c5c4)ccnc3[nH]2)c1 [Compound 5c] | 5 | 28 | – | –
7 | Nc1n[nH]c2ccc(-c3ccnc4[nH]c(-c5cccc(O)c5)cc34)cc12 [Compound 5d] | 5 | 26 | – | –
8 | COc1cccc(-c2cc3c(-c4ccc5[nH]nc(N)c5c4)ccnc3[nH]2)c1 [Compound 5e] | 5 | 40 | – | –
9 | Nc1n[nH]c2ccc(-c3ccnc4[nH]c(-c5cc(O)cc(F)c5)cc34)cc12 [Compound 5f] | 4 | 42 | – | –
10 | COc1cc(F)cc(-c2cc3c(-c4ccc5[nH]nc(N)c5c4)ccnc3[nH]2)c1 [Compound 5g] | 3 | 32 | – | –
11 | Nc1n[nH]c2ccc(-c3ccnc4[nH]c(-c5cccc(C(=O)O)c5)cc34)cc12 [Compound 5h] | 8 | 168 | – | –
12 | NC(=O)c1cccc(-c2cc3c(-c4ccc5[nH]nc(N)c5c4)ccnc3[nH]2)c1 [Compound 5i] | 5 | 159 | – | –
13 | CS(=O)(=O)Nc1cccc(-c2cc3c(-c4ccc5[nH]nc(N)c5c4)ccnc3[nH]2)c1 [Compound 5j] | 3 | 109 | – | –
14 | CS(=O)(=O)c1cccc(-c2cc3c(-c4ccc5[nH]nc(N)c5c4)ccnc3[nH]2)c1 [Compound 5k] | 3 | 36 | – | –
15 | COCCC(=O)Nc1cccc(-c2cc3c(-c4ccc5[nH]nc(N)c5c4)ccnc3[nH]2)c1 [Compound 5l] | 6 | 25 | – | –
16 | COCCNC(=O)c1cccc(-c2cc3c(-c4ccc5[nH]nc(N)c5c4)ccnc3[nH]2)c1 [Compound 5m] | 15 | 107 | – | –
17 | Nc1n[nH]c2ccc(-c3ccnc4[nH]c(-c5cccc(CNC6CCCC6)c5)cc34)cc12 [Compound 5n] | 10 | 191 | – | –
18 | CC(C)COc1cccc(-c2cc3c(-c4ccc5[nH]nc(N)c5c4)ccnc3[nH]2)c1 [Compound 5o] | 19 | 458 | – | –
19 | Nc1n[nH]c2ccc(-c3ccnc4[nH]c(-c5cccc(CNc6ccccc6)c5)cc34)cc12 [Compound 5p] | 35 | 470 | – | –

Row | Structure (SMILES) | Ki (IKKα) [nM] | Ki (IKKβ; read-out: Ki Values IKKβ) [nM] | solubility (Turbidimetric solubility) [µM] | Ki (IKKβ; Ki Values IKKβ) [nM]
20 | Nc1n[nH]c2ccc(-c3ccnc4[nH]c(-c5ccccc5OCc5ccccc5)cc34)cc12 [Compound 5q] | 57 | 1060 | – | –
21 | Nc1n[nH]c2ccc(-c3ccnc4[nH]c(-c5ccc(OCc6ccccc6)cc5)cc34)cc12 [Compound 5s] | 16 | 189 | – | –
22 | Cc1ccc(S(=O)(=O)Nc2cccc(-c3cc4c(-c5ccc6[nH]nc(N)c6c5)ccnc4[nH]3)c2)cc1 [Compound 5t] | 10 | 1050 | – | –
23 | Cc1ccc(S(=O)(=O)Nc2ccc(-c3cc4c(-c5ccc6[nH]nc(N)c6c5)ccnc4[nH]3)cc2)cc1 [Compound 5u] | 4 | 67 | – | –
24 | CN1CCN(C(=O)c2cccc(-c3cc4c(-c5ccc6[nH]nc(N)c6c5)ccnc4[nH]3)c2)CC1 [Compound 5v] | 24 | 215 | – | –
25 | Nc1n[nH]c2ccc(-c3ccnc4[nH]c(-c5cccc(OCc6ccccn6)c5)cc34)cc12 [Compound 5w] | 16 | 402 | – | –
26 | Nc1n[nH]c2ccc(-c3ccnc4[nH]c(-c5cccc(OCC6CCOCC6)c5)cc34)cc12 [Compound 5x] | 8 | 122 | – | –
27 | Nc1n[nH]c2ccc(-c3ccnc4[nH]c(-c5cccc(OCCN6CCOCC6)c5)cc34)cc12 [Compound 5y] | 9 | 29 | – | –
28 | COc1ccc(COc2cccc(-c3cc4c(-c5ccc6[nH]nc(N)c6c5)ccnc4[nH]3)c2)cc1 [Compound 5z] | 43 | 166 | – | –
29 | Nc1n[nH]c2ccc(-c3ccnc4[nH]c(-c5cc(F)cc(OCc6ccccc6)c5)cc34)cc12 [Compound 6a] | 59 | 5030 | – | –
30 | COCCOCc1cc(OCc2ccccc2)cc(-c2cc3c(-c4ccc5[nH]nc(N)c5c4)ccnc3[nH]2)c1 [Compound 6b] | 29 | 1210 | 3.75 (≈ 1.95 µg/mL) | –
31 | COCCNc1cc(OCc2ccccc2)cc(-c2cc3c(-c4ccc5[nH]nc(N)c5c4)ccnc3[nH]2)c1 [Compound 6c] | 26 | – | 2 (≈ 1.01 µg/mL) | 1530
32 | Nc1n[nH]c2ccc(-c3ccnc4[nH]c(-c5ccc(OCc6ccccc6)nc5)cc34)cc12 [Compound 6d] | 12 | 22 | – | –
33 | Nc1n[nH]c2ccc(-c3ccnc4[nH]c(-c5cncc(OCc6ccccc6)c5)cc34)cc12 [Compound 6e] | 21 | 1550 | 6.5 (≈ 2.81 µg/mL) | –
34 | Nc1n[nH]c2ccc(-c3ccnc4[nH]c(-c5cc(F)nc(CNc6ccccc6)c5)cc34)cc12 [Compound 6f] | 33 | 503 | 3.75 (≈ 1.69 µg/mL) | –
35 | Nc1n[nH]c2ccc(-c3ccnc4[nH]c(-c5ccnc(SCc6ccccc6)c5)cc34)cc12 [Compound 6h] | 5 | 1180 | 2 (≈ 0.897 µg/mL) | –
36 | Nc1n[nH]c2ccc(-c3ccnc4[nH]c(-c5cc(F)nc(SCc6ccccc6)c5)cc34)cc12 [Compound 6i] | 127 | 3000 | – | –
37 | Nc1n[nH]c2ccc(-c3ccnc4[nH]c(-c5cc(OCc6ccccc6)ccn5)cc34)cc12 [Compound 6j] | 25 | 2300 | 2 (≈ 0.865 µg/mL) | –
38 | Nc1n[nH]c2ccc(-c3ccnc4[nH]c(-c5ccnc(OCCc6ccccc6)c5)cc34)cc12 [Compound 6l] | 42 | 1600 | – | –
